Results taken from patent publication US20250214947A1, “3,4-DIHYDROQUINOXALINE-2-CARBOXIMIDE DERIVATIVE COMPOUND AND PHARMACEUTICAL COMPOSITION COMPRISING SAME FOR PREVENTING OR TREATING CANCER DISEASE” (Cureverse Incorporated, priority 2022, published 2025).

Experiments:
HDAC8 [1] = molecular target: T1, HDAC8 (Homo sapiens, UniProt Q9BY41); test: HDAC8 inhibitory activity analysis (in vitro), RFU analysis, HDAC Fluorogenic assay kit; assay type: biochemical; conditions: 10 μM; compared with TSA or SAHA
T1 construct: purchased BPS bioscience
T1 sequence (Q9BY41 1-377): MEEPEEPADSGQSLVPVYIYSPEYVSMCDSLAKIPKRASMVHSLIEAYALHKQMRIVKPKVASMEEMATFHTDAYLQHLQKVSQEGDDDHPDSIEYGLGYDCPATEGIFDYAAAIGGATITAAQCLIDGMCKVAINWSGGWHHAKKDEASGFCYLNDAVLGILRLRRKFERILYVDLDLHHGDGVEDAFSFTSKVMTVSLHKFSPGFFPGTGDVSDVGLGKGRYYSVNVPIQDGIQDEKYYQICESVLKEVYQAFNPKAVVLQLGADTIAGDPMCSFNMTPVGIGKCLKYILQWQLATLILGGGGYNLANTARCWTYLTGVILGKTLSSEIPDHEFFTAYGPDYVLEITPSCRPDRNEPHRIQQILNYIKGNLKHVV
Procedure: The compound of the Example was diluted to 1 mM (1% DMSO concentration) using DMSO to obtain a final concentration of 10 μM, and prepared by diluting 1/10 with assay buffer. In a 96-well black round-bottom plate, 5 μL of the diluted compound of the Example, 5 μL of the diluted HDAC substrate 2A, 5 μL of BSA (1 mg/mL), 5 µL of the HDAC8 enzyme diluted to an appropriate concentration, and 30 μL of assay buffer were added, and the enzyme reaction was performed at 37° C. for 30 minutes. […] Afterwards, 50 μL of 2×HDAC developer was added to each well. After reacting for 15 minutes at room temperature, the fluorescence values at excitation wavelengths of 350-380 nm and emission wavelengths of 440-460 nm were measured using a microplate reader (Synergy Neo).

HDAC8 [2] = molecular target: T1, HDAC8; test: Selective inhibitory effect, HDAC Fluorogenic assay kit, HDAC8; assay type: biochemical; conditions: versus HDAC1, 2, 3, 4, 6, 7, 9, 10, 11; 10 μM
Procedure: (§1) For analysis, HDAC substrate 3 was diluted in buffer to a concentration of 200 μM and used in HDAC 1, 2, 3, 6, and 10 assays, HDAC substrate 2A was diluted in buffer to a concentration of 200 μM and used in HDAC 4, 7, 9, and 11 assays, HDAC substrate 2A was diluted in buffer to a concentration of 20 μM and used in HDAC 8 assays. For the HDAC 11 assay, a dedicated buffer included in the kit was used separately, and the same buffer was used for the remaining assays. The compound of the Example was diluted to 1 mM (1% DMSO concentration) using DMSO to obtain a final concentration of 10 μM, and prepared by diluting 1/10 with assay buffer. In a 96-well black round-bottom plate, 5 μL of the diluted compound of the Example, 5 μL of the diluted HDAC substrate, 5 μL of BSA (1 mg/ml), 5 μL of the HDAC enzyme diluted to the appropriate concentration, and 30 μL of assay buffer were added, and the enzyme reaction was performed at 37° C. for 30 minutes. […] Afterwards, 50 μL of 2×HDAC developer was added to each well. After reacting for 15 minutes at room temperature, the fluorescence values at excitation wavelengths of 350-380 nm and emission wavelengths of 440-460 nm were measured using a microplate reader (Synergy Neo).

PC-3 cell lines = test: Prostate cancer model, PC-3 cell lines subcutaneously transplanted into nude mice; assay type: in vivo; conditions: 50 mg/kg orally once a day
Procedure: A prostate cancer model was established by subcutaneously transplanting PC-3 cell lines into nude mice, and the mice were divided into two groups (group 1: vehicle administration group (10% DSMO, 30% PEG400, 60% DW), group 2: 50 mg/kg Example 27 compound administration group). The drug was administered orally once a day for 12 times. To evaluate the therapeutic efficacy, tumors were […] before drug administration and on days 3, 6, 8, 10, 12, and 14 after drug administration, and tumor volumes were measured. Tumor volume (mm^3) was calculated as follows (tumor volume (mm^3)=(A×B^2)/2, where A=tumor long axis, B=tumor short axis), and the results are shown in FIG. 2.
Meanwhile, on day 12 of drug administration, the tumor was removed and its weight was measured, the results are shown in FIG. 3, and a photograph of the removed tumor was taken and shown in FIG. 4.

Huh-7 cell lines = test: Liver cancer model, Huh-7 cell lines subcutaneously transplanted into nude mice; assay type: in vivo; conditions: 50 mg/kg once a day
Procedure: In addition, a liver cancer model was established by subcutaneously transplanting Huh-7 cell lines into nude mice. After establishing the liver cancer model, the mice were divided into two groups (group 1: vehicle administration group, group 2: 50 mg/kg Example 27 compound administration group). The drug was administered once a day for 12 times. To evaluate therapeutic efficacy, tumor volume was measured before drug administration and on days 4, 7, 10, 13, and 15 after drug administration. Tumor volume (mm^3) was calculated as follows (tumor volume (mm^3)=(A×B^2)/2, where A=tumor long axis, B=tumor short axis). Body weight was measured before administration and on days 4, 7, 10, 13, and 15 after drug administration during the drug administration period. Tumor was excised on day 15 after drug treatment and body weight was measured.

HDAC1 = HDAC1 (Homo sapiens, UniProt Q13547); test: Selective inhibitory effect, HDAC Fluorogenic assay kit, HDAC1; conditions: read-out: HDAC1 enzyme activity (%)
Procedure: as §1

HDAC2 = HDAC2 (Homo sapiens, UniProt Q92769); test: Selective inhibitory effect, HDAC Fluorogenic assay kit, HDAC2; conditions: read-out: HDAC2 enzyme activity (%)
Procedure: as §1

HDAC3 = HDAC3 (Homo sapiens, UniProt O15379); test: Selective inhibitory effect, HDAC Fluorogenic assay kit, HDAC3; conditions: read-out: HDAC3 enzyme activity (%)
Procedure: as §1

HDAC6 = molecular target: T2, HDAC6 (Homo sapiens, UniProt Q9UBN7); test: Selective inhibitory effect, HDAC Fluorogenic assay kit, HDAC6; conditions: read-out: HDAC6 enzyme activity (%)
T2 sequence (Q9UBN7 1-1215): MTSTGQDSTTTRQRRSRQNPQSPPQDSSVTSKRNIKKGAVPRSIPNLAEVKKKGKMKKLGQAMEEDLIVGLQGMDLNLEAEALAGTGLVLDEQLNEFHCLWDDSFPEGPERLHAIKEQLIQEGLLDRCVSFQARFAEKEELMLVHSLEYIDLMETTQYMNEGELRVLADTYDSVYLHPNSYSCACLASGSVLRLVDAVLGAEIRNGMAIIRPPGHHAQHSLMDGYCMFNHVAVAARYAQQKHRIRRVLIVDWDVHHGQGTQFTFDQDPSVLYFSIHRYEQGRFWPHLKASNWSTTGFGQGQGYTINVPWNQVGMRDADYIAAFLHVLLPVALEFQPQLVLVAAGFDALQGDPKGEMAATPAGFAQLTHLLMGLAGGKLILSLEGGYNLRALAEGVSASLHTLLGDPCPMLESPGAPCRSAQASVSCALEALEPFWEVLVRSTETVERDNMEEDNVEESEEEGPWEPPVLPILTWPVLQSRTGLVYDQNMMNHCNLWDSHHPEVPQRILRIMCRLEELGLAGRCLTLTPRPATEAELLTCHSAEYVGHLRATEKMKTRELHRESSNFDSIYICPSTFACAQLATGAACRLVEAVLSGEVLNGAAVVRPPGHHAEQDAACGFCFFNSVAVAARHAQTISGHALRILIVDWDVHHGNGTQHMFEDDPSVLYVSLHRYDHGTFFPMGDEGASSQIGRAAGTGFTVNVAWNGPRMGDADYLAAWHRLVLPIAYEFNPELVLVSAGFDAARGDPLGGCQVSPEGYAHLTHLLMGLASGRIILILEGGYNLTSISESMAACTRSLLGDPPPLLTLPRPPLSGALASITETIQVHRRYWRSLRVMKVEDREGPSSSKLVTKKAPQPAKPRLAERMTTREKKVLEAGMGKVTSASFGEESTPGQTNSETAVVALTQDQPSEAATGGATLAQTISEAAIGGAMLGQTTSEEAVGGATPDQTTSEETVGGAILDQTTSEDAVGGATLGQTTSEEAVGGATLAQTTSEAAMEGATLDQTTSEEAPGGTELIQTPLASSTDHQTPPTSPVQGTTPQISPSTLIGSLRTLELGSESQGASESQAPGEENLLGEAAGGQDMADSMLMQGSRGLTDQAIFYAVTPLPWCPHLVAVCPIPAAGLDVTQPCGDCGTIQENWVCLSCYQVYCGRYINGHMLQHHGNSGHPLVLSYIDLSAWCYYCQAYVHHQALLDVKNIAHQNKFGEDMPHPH
Procedure: as §1

HDAC1, sequence (Q13547 whole entry): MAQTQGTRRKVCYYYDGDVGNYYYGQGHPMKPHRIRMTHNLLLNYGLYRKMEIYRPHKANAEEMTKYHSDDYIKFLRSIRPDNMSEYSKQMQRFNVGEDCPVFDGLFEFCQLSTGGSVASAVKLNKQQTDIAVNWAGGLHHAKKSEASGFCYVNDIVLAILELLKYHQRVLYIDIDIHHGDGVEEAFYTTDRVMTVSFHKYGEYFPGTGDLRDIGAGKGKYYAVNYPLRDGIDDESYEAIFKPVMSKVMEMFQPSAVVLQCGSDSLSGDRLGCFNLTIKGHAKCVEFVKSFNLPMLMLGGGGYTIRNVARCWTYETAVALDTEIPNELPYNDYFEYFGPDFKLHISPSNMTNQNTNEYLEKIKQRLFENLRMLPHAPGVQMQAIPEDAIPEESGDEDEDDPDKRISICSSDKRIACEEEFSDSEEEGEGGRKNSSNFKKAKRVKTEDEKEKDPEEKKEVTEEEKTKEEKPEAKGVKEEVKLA
HDAC3, sequence (O15379 whole entry): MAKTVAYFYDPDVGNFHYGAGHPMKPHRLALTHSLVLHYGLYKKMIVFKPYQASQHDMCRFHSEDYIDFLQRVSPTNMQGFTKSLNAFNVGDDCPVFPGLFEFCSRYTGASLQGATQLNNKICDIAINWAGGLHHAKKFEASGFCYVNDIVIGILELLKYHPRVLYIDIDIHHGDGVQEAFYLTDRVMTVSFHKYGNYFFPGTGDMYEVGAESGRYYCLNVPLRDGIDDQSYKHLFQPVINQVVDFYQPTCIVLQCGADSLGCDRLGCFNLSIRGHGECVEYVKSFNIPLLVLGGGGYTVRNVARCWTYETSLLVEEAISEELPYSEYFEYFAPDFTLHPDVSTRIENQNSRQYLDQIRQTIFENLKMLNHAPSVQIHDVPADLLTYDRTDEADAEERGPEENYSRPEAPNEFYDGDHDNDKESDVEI
HDAC3, sequence (Q9Y618 395-489 partner limits assumed): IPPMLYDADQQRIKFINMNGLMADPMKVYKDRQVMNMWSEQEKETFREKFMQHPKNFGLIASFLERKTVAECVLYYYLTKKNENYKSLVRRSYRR
HDAC2, sequence (Q92769 whole entry): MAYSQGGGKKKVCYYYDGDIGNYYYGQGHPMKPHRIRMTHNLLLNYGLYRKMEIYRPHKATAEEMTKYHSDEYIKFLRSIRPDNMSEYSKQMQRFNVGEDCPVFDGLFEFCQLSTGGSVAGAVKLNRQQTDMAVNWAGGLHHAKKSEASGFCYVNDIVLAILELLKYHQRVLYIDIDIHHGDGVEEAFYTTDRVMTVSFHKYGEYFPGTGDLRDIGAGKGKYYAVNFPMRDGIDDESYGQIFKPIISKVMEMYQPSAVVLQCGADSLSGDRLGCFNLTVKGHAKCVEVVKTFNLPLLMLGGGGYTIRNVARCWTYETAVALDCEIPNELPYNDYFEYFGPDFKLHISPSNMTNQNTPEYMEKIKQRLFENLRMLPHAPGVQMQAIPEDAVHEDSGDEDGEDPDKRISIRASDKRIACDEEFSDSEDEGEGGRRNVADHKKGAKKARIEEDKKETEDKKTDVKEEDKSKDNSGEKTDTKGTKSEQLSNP

- remaining activity at 10 µM (HDAC1): 76.2%
- remaining activity at 10 µM (HDAC2): 91.2%
- remaining activity at 10 µM (HDAC3): 73.1%
- remaining activity at 10 µM (HDAC6): 43.7%
Compound: Cc1cc2nc(C(=O)NCCc3c[nH]c4ccc(O)cc34)c(=O)n(C[C@H](O)[C@H](O)[C@H](O)CO)c2cc1C [Example 27, N-(2-(5-hydroxy-1H-indol-3-yl)ethyl)-6,7-dimethyl-3-oxo-4-((2S,3S,4R)-2,3,4,5-tetrahydroxypentyl)-3,4-dihydroquinoxaline-2-carboxamide]
- inhibitory activity against HDAC8 (in words) (HDAC8 [1]): inhibitory activity similar to TSA or SAHA
- selective inhibitory effect on HDAC8 (in words) (HDAC8 [2]): selective and excellent inhibitory activity only against HDAC8
- tumor volume (in words) (PC-3 cell lines; 12 times, up to day 14, p<0.05 vs vehicle, FIG. 2): significantly reduced tumor volume growth rate compared to group 1
- tumor weight (in words) (PC-3 cell lines; tumor removed on day 12, p<0.0005 vs vehicle, FIG. 3): vehicle administration group (group 1) had a significantly higher tumor weight than the Example 27 compound administration group
- tumor volume (in words) (Huh-7 cell lines; 12 times, up to day 15, p<0.005 vs vehicle, FIG. 7A): tumor growth inhibitory effect
- tumor weight (in words) (Huh-7 cell lines; tumor removed on day 15, p<0.0005 vs vehicle, FIGS. 7B and 7C): tumor weight of the vehicle group was significantly higher than that of the Example 27 compound administration group
